Columns and labels:
[1] = Formulation development: solubility and clinical infusion simulation through 5 μm in-line filter; assay type: physicochemical
Experimental: Various pharmaceutical compositions were prepared in order to develop a formulation suitable for IV administration. […] A desirable IV pharmaceutical composition will be a solution. Further, a desirable IV pharmaceutical composition, when diluted with IV fluids will remain in solution. In addition, a desirable IV pharmaceutical composition, when diluted with IV fluids will remain in solution and pass an in-line filter of about 5 μm.
Clinical infusion simulation study: formulated Compound I (equivalent to 4 mg/mL Compound I free base tetrahydrate) was mixed in-line with Lactated Ringers IV Solution through a controlled delivery system employing infusion pumps. The blended liquid was passed through a 5 μm in-line filter and the eluate was then passed to the end of the infusion line. Sample analysis was performed by collecting materials at 0, 15, 30, 60, 75, 90, 105, 115 and 120 minutes and analyzing immediately be visual assessment under a microscope.

[2] = tested on: acute myeloid leukemia (AML) cell lines; test: In vitro antiproliferative assay; assay type: cell-based
From the text: (§1) Compound I free base and Compound I HCl salt were both tested for their in vitro antiproliferative potency against acute myeloid leukemia (AML) cell lines, for their concentration-dependent abilities to induce in vitro changes in gene expression (KLF4, c-Myc, CDX2, p21, and GAPDH genes) and to induce cell cycle arrest and apoptosis in AML cell lines.

[3] = tested on: KLF4, c-Myc, CDX2, p21, and GAPDH genes; test: In vitro changes in gene expression; assay type: cell-based; conditions: AML cell lines
From the text: as §1

[4] = tested on: AML cell lines; test: Induction of cell cycle arrest and apoptosis; assay type: cell-based
From the text: as §1

[5] = tested on: c-Myc oncogene; test: Inhibition of c-Myc expression in cancer cells; assay type: cell-based; conditions: human-derived solid tumor and hematologic cancer cells
From the text: (§2) Compound I is a small molecule that inhibits expression of the c-Myc oncogene, leading to cell cycle arrest and programmed cell death (apoptosis) in human-derived solid tumor and hematologic cancer cells.

[6] = tested on: xenograft models of solid tumors and hematologic cancers; test: Nonclinical pharmacology xenograft studies; assay type: in vivo
From the text: as §2

solubility compared with Compound I-HCl under the same conditions ([1]; Solutol HS 15, PG, PEG-400, water): more soluble
apparent solubility while adding water to the formulation ([1]; in the beginning, approximately 3-10 mL water added): more soluble
behaviour upon addition of IV fluid ([1]; pharmaceutical composition prepared with Fischer Scientific's PG): crashed out of solution
effect of PEG-400 on solubility ([1]; tested conditions (entries 2 and 3)): did not improve solubility
apparent solubility while adding water to the formulation ([1]; upon complete addition of water (up to 60 mL), cloudy formulation): insoluble
Structure (SMILES): Cc1[nH]c2ccc(F)cc2c1-c1nc2c3cccnc3c3ncccc3c2[nH]1 [Compound I, 2-(5-fluoro-2-methyl-1H-indol-3-yl)-1H-imidazo[4,5-f][1,10]phenanthroline]
in vitro antiproliferative potency, free base versus HCl salt [2]: behaved equivalently
concentration-dependent in vitro changes in gene expression, free base versus HCl salt [3]: behaved equivalently
induction of cell cycle arrest and apoptosis, free base versus HCl salt [4]: behaved equivalently
expression of the c-Myc oncogene [5]: inhibits
in vivo anti-tumor activity [6]: demonstrated in vivo anti-tumor activity
